Series [1] is classed as in vivo, mice. As to conditions: male, Swiss, mouse, plasma, po, 100 ug.
The conditions of series [2]: rats, IV, cited from earlier work.

Here are results for 1 compound from publication doi:10.1101/2023.11.09.566408v1 (bioRxiv, 2023).

As for `CC[C@H](C)[C@H](NC(=O)[C@@H]1CCCN1C(=O)CNC(=O)[C@H](Cc1ccccc1)NC(=O)[C@H](CC(N)=O)NC(=O)[C@H](CC(N)=O)NC(=O)[C@H](CO)NC(=O)[C@H](CO)NC(=O)[C@H](Cc1c[nH]cn1)NC(=O)[C@@H](NC(=O)[C@H](CC(C)C)NC(=O)[C@H](Cc1ccccc1)NC(=O)[C@H](CC(N)=O)NC(=O)[C@H](C)NC(=O)[C@H](CC(C)C)NC(=O)[C@H](CCCNC(=N)N)NC(=O)[C@H](CCC(N)=O)NC(=O)[C@@H](NC(=O)[C@H](C)NC(=O)[C@@H]1CSSC[C@H](NC(=O)[C@@H](N)CCCCN)C(=O)N[C@@H](CC(N)=O)C(=O)N[C@@H]([C@@H](C)O)C(=O)N[C@@H](C)C(=O)N[C@@H]([C@@H](C)O)C(=O)N1)[C@@H](C)O)C(C)C)C(=O)N[C@@H](CC(C)C)C(=O)N1CCC[C@H]1C(=O)N1CCC[C@H]1C(=O)N[C@H](C(=O)N[C@@H](CC(N)=O)C(=O)N[C@H](C(=O)NCC(=O)N[C@@H](CO)C(=O)N[C@@H](CC(N)=O)C(=O)N[C@H](C(=O)N[C@@H](Cc1ccc(O)cc1)C(N)=O)[C@@H](C)O)C(C)C)[C@@H](C)O` [pramlintide], the Tmax in series [1] is 30 min. In addition, in series [2] (1 μg), the plasma concentration is 1,000 pM. In addition, the plasmatic concentration in series [2] (10 μg) was 10,000 pM.
